Measurements reported in patent publication US20190038602A1, “GRANZYME B INHIBITOR FORMULATIONS AND METHODS FOR THE TREATMENT OF BURNS” (viDA Therapeutics, Inc., priority 2016, published 2019).
Values joined by “and” are separate entries in the source; they are usually repeats but may differ in a detail not shown here. Equal values may be shown once.

Columns and labels:
[1] = Compound A concentration at saturation in penetration enhancer vehicles (UPLC); assay type: physicochemical
Protocol: Compound A was dissolved at saturation in various vehicles containing PE in pH 5 acetate buffer (see Table 2). An excess amount of Compound A and the corresponding vehicle were mixed by rotary mixer at room temperature for 24 hours and subsequent filtration through 0.22 μm cellulose acetate membrane. Concentration of Compound A was measured by UPLC.

[2] = Ex vivo pig ear skin permeation, Franz Diffusion Cell System; assay type: in vitro ADME; conditions: for Compound A in tape-stripped skin samples, Average: n=3; for Skin concentration (Compound A in tape-stripped skin, single replicates): listed as Compound A
Protocol: […] Formulations were delivered to the skin over a period of 6 hours and drug permeation was assessed by UPLC-MS/MS analysis of tape-stripped skin and receptor fluid. Receptor fluid samples were collected for analysis at 3 and 6 hour time points.
Compound A permeation through skin was assessed ex vivo by using pig ear skin and a Franz Diffusion Cell System (PermeGear®).
Fresh pig ears were obtained from female Yorkshire/Landrace crosses, between 3.5-5 months old, at Jack Bell Research Centre, Vancouver. Immediately after surgery, pig ears were removed and placed in a double Ziploc® bag and stored at −20° C. freezer until shipment to laboratory site on ice via courier the next day. Upon arrival at the site, pig ears were stored in a segregated container, labeled with harvest and shipment date, in −20° C. freezer and were used prior to their expiry date of 5 weeks. Pig skin was prepared according to “Preparation of Pig Skin Samples for ex vivo Permeation Assays.” Briefly, one day prior to the study, frozen ears were thawed washed with deionized water and blotted dry. After trimming off hair, surface skin was separated from cartilage and fat, and hole-punched into coin shape samples to fit dimensions of Franz cells. Pig ear samples were stored in a petri dish, sealed with parafilm tape, in double Ziploc® bags at −20° C. overnight prior to the study on the following day.
Set up of the diffusion cell system was performed according to “Setup, Operation and Cleaning Procedure for Franz Diffusion Cell System.” Prior to application of formulations, skin integrity of each skin sample was determined by measuring the electrical resistance. The electrical resistance was measured with a Model 878B Dual Display LCR Meter (BK Precision®) connected to two stainless steel electrodes, using a setting of 1 KHz. Measurements were taken at least 30 minutes after mounting skin samples to ensure temperature and humidity equilibration. The donor and receptor chamber were filled with 300 μL and 5 mL of pH 7.4 phosphate buffered saline (PBS), respectively, and both electrodes were immersed in solution without touching the skin membrane. Any skin membrane giving an electrical resistance below 4.0 kΩ was discarded and replaced.
Throughout the permeation assay, all cells were maintained at 32° C. and sink condition was maintained in the receptor fluid. Receptor chambers were filled with 4.75 mL of receptor fluid (pH 7.4 PBS) and were kept stirring for the entire duration of the experiment. Skin samples were mounted above the receptor chamber, in direct contact with the receptor fluid, and then donor chambers were mounted above the skin. Any air bubbles between the skin tissue and the receptor fluid were carefully removed prior to application of formulations. The appropriate formulation (300 μL) was added to the donor chamber and the opening of the cell was covered with Parafilm® to prevent evaporation of the test article. Three skin samples per formulation (N) were tested. Three components (receptor fluid, applied formulation and skin samples) were sampled for subsequent analysis. Receptor fluid was sampled at 3 and 6 hours (without volume replacement) and stored at −20° C. until analysis. At the end of the experiment, the applied formulation was recovered from the donor chamber and recorded as the unabsorbed dose. The skin was then blotted dry with a Kimwipe® and tape-stripped skin (12 tape strips) was obtained. The first tape strip (3M scotch tape) was used to remove excess of formulation remaining on the skin and was discarded. Then a total of 11 tape strips were used to partially remove the stratum corneum. These tape strips were kept in labeled glass vial. Then using a hole-puncher the section of skin exposed to the formulation was removed and the corresponding weight of the skin sample was recorded. All samples were stored at −20° C. until analysis. […]

burn wound = assay: Burn wound healing in mice (deep partial thickness thermal injury, degree IIb); assay type: in vivo
Protocol: In the studies described herein, all mice were initially anesthetized using mixture of isoflurane/oxygen (Iso about 2-2.5%/oxygen flow rate of about 1.5-2 L/min) in an induction chamber, then moved to a Baines system with a 1-2.5%/1.5-2 L/min flow rate. During anesthesia the mice were placed on a warming pad with a nose cone over the mice to maintain the anesthetic state. The toe nails were trimmed with clippers. A metal rod (25 g, 1 cm in diameter) was heated to 95-100° C. by submersion in boiling water for 3-5 min. The rod was immediately positioned vertically for 6 seconds without additional pressure on the dorsal skin of mice that had also been depilated 3 days before wounding. This procedure induces a deep partial thickness thermal injury (degree IIb). The severity of the thermal injury is classified according to Exp Dermatol. 2010; 19(9):777-783.

[3] = Concentration of Compound A in skin after application of gel (FIG. 3B); conditions: 50 μL gel, 0.35% w/v Compound A
Protocol: FIG. 3A is an image of skin to which a volume (50 μL) of a representative formulation of the invention that includes Compound A was applied. The applied formulation (gel) includes Compound A at a concentration of 0.35% w/v in a vehicle containing propylene glycol (20% w/w), Carbopol 940 (0.5% w/v), methyl paraben (0.2% w/w), propyl paraben (0.02% w/w) and acetate buffer pH 5 (QS). Triethylamine was used to adjust the final formulation pH to 5-6.
(§1) FIG. 3B compares concentration of Compound A (μg/μL) in the skin at 4, 6, and 24 hours after application of a volume (50 μL) of a representative formulation of the invention that includes Compound A as described above for FIG. 3A.
as §1, with “FIG. 3A is an image of skin to which a volume (50 μL) of a representative formulation of the invention that includes Compound A was applied. FIG. 3B” for “FIG. 3B”

## CC[C@H](C)[C@H](NC(=O)CCC(=O)O)C(=O)NCC(=O)N1C(=O)N(C2CCCCC2)C[C@H]1C(=O)NCc1nn[nH]n1 [Compound C2, 4-(((2S,3S)-1-((2-((S)-5-(((2H-tetrazol-5-yl)methyl)carbamoyl)-3-cyclohexyl-2-oxoimidazolidin-1-yl)-2-oxoethyl)amino)-3-methyl-1-oxopentan-2-yl)amino)-4-oxobutanoic acid]
[1]; Water + 20% N-methyl-2-pyrollidone (NMP)
  Compound A Concentration in Formulation: 1.13 mg/mL
[1]; pH5 acetate buffer + 10% Transcutol (TC)
  Compound A Concentration in Formulation: 2.99 mg/mL
[1]; pH5 acetate buffer + 10% dimethylisosorbide (DMI)
  Compound A Concentration in Formulation: 3.18 mg/mL
[1]; pH5 acetate buffer + 10% urea
  Compound A Concentration in Formulation: 3.04 mg/mL
[1]; pH5 acetate buffer + 15% TWEEN 80
  Compound A Concentration in Formulation: 1.56 mg/mL
[1]; pH5 acetate buffer + 20% propylene glycol (PG), room temperature 24 hours
  Compound A Concentration in Formulation: 2.82 mg/mL
[2]; Water + 20% N-methyl-2-pyrollidone (NMP), 6 hour exposure
  Compound A in tape-stripped skin samples, Average: 4846 ng/g
[2]; Water + 20% NMP, 6 h exposure
  Skin concentration (Compound A in tape-stripped skin, single replicates): 4313 ng/g and 4985 ng/g and 5241 ng/g
[2]; pH5 acetate buffer + 10% DMI, 6 h exposure
  Skin concentration (Compound A in tape-stripped skin, single replicates): 13975 ng/g and 6214 ng/g and 6311 ng/g
[2]; pH5 acetate buffer + 10% Dimethyl Isosorbide (DMI), 6 hour exposure
  Compound A in tape-stripped skin samples, Average: 8833 ng/g
[2]; pH5 acetate buffer + 10% TC, 6 h exposure
  Skin concentration (Compound A in tape-stripped skin, single replicates): 5869 ng/g and 8886 ng/g and 1629 ng/g
[2]; pH5 acetate buffer + 10% Transcutol (TC), 6 hour exposure
  Compound A in tape-stripped skin samples, Average: 5461 ng/g
[2]; pH5 acetate buffer + 10% Urea, 6 h exposure
  Skin concentration (Compound A in tape-stripped skin, single replicates): 5588 ng/g and 19422 ng/g and 2943 ng/g
[2]; pH5 acetate buffer + 10% Urea, 6 hour exposure
  Compound A in tape-stripped skin samples, Average: 9317 ng/g
[2]; pH5 acetate buffer + 15% Tw80, 6 h exposure
  Skin concentration (Compound A in tape-stripped skin, single replicates): 4937 ng/g and 1968 ng/g and 4442 ng/g
[2]; pH5 acetate buffer + 15% Tween 80, 6 hour exposure
  Compound A in tape-stripped skin samples, Average: 3782 ng/g
[2]; pH5 acetate buffer + 20% PG, 6 h exposure
  Skin concentration (Compound A in tape-stripped skin, single replicates): 4785 ng/g and 10012 ng/g and 6515 ng/g and 4784 ng/g
[2]; pH5 acetate buffer + 20% Propylene Glycol (PG), 6 hour exposure
  Compound A in tape-stripped skin samples, Average: 7104 ng/g
[2]; tape-stripped skin, 6 hours, span over the six formulations
  Average skin concentrations: 3700 to 9300 ng/g
Burn wound; subcutaneous injection, solution in PBS 0.56 mg/ml, vs saline, Day 0 to Day 30
  Burn wound healing (percent of original wound size, falling of scabs): attenuation of initial burn expansion in the zone of stasis and improved burn wound healing
Burn wound; topical gel
  Quality of healed wound (epidermal thickness, decorin level, collagen level): improves quality of healed wound
Burn wound; topical gel vs saline control
  Burn wound healing (percent of original wound size, falling of scabs): attenuation of initial burn expansion in the zone of stasis and improved burn wound healing
Burn wound; topical gel vs vehicle control, repeated study, Day 0 to Day 24
  Burn wound healing (percent of original wound size): attenuation of initial burn expansion in the zone of stasis and improved burn wound healing
[3]
  Stability and retention in skin (concentration at 4, 6 and 24 hours): stable and effectively retained in the skin

## CC[C@H](C)[C@H](NC(=O)CCC(=O)O)C(=O)NCC(=O)N1C(=O)N(C2CCCCC2)C[C@H]1C(=O)NCc1nn[nH]n1 [Compound 1A, 4-(((2S,3S)-1-((2-((S)-5-(((2H-tetrazol-5-yl)methyl)carbamoyl)-3-cyclohexyl-2-oxoimidazolidin-1-yl)-2-oxoethyl)amino)-3-methyl-1-oxopentan-2-yl)amino)-4-oxobutanoic acid]
Burn wound; 3.6 mg/mL gel, pH 6.0 with triethanolamine, compared with Compound 1 gel (triethylamine)
  In vivo performance of gel: performance comparable to that of another representative formulation
